Values quoted from earlier work, collected in patent US6951654B2, “Intravaginal drug delivery devices for the administration of an antimicrobial agent” (Galen (Chemicals) Limited, priority 2001, dated 2005).

Conditions: at 20° C.; Merck Index

solubility in water: 1 g per 100 ml
Compound: Cc1ncc([N+](=O)[O-])n1CCO [metronidazole, 2-methyl-5-nitro-1H-imidazole-1-ethanol]
